The record followed here is US8546377B2 (AbbVie Inc., priority 2009, dated 2013).

SMILES strings stand for the structures. Read-outs that look alike come from different tables or passages of the source.

Assay [1] addresses T1, human serotonin 5-HT2c receptor (Homo sapiens, UniProt P28335).
T1 construct: expressed in transfected cells; host or cells: CHO cells (membrane homogenate)
T1 sequence (P28335 33-458): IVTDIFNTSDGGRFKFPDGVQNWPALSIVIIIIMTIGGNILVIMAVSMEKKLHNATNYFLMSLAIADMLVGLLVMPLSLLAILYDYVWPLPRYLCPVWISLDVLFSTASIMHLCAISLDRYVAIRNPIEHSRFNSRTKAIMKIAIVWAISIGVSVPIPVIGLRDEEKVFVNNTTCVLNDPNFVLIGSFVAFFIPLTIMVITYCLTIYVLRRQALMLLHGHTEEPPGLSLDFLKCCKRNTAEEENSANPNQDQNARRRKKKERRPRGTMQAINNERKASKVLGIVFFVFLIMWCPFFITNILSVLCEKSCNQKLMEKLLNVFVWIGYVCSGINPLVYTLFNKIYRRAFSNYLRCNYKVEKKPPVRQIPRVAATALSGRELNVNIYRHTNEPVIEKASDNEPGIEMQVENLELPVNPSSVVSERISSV
Nature of the assay: Human 5-HT2C receptor radioligand binding assay (agonist site, [125I](±)DOI). The following applies: membranes of transfected CHO cells, 0.2 nM [125I](±)DOI, 15 minutes at 37° C. As to the method: To determine the effectiveness of compounds having a formula (I), these compounds can be evaluated in a radioligand binding assay for the agonist site of the human serotonin 5-HT2c receptor or in vitro models of cellular function.
(i) Human 5-HT2C Receptor Radioligand Binding Assay
Affinity of compounds for the agonist site of the 5-HT2c receptor in transfected CHO cells was determined in a radioligand binding assay essentially as described by Bryant, H. U., et al., Life Sciences (1996) 59(15), 1259-1268.

Assay [2] addresses T2, 5HT2B receptors (Homo sapiens, UniProt P41595).
T2 construct: expressed in transfected cells; host or cells: CHO-K1 cells
Nature of the assay: Human 5-HT2B functional assay in CHO-K1 cells (calcium flux, FLIPR). It counts as cell-based. In short, it runs like this: (§1)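 EC50 came from a 4-parameter logistic fit, with Emax expressed relative to serotonin, of intracellular Ca2+ rises read on FLIPR at 480/530 nm, 25° C, over 3 min. Compounds ran from 10 μM in six 1:10 steps (0.2% DMSO) on serum-starved CHO-K1 transfectants pre-loaded 60 min with Ca4 dye and probenecid.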
In general terms: A change in cytosolic calcium serves as a functional read-out for many receptors and channels.

Assay [3] deals with T3, 5HT2C receptors (Homo sapiens, UniProt P28335).
T3 sequence (P28335 33-458): T1 sequence (P28335 33-458)
Nature of the assay: Human 5-HT2C functional assay in CHO-K1 cells (calcium flux, FLIPR). It counts as cell-based. The following applies: for Emax: percentage relative to the effect of serotonin. The arrangement: expressed in transfected cells; host or cells: CHO-K1 cells. In short, it runs like this:
as §1

[4] abbreviates: CHO-K1, read-out: Emax (%), 5-HT2B Agonist Activity.
Setting [5] is: CHO-K1, read-out: Emax (%), 5-HT2c Agonist Activity, CHO-K1 cells.
[6] abbreviates: CHO-K1 cells over-expressing 5HT2B, calcium flux, read-out: EC50 (μM), 5-HT2B Agonist Activity.
Setting [7] is: CHO-K1 cells over-expressing 5HT2C, calcium flux, read-out: EC50 (μM), 5-HT2c Agonist Activity.
[8] abbreviates: CHO-K1 cells, read-out: Emax (%), 5-HT2c Agonist Activity.
[9] abbreviates: CHO-K1 cells, percentage relative to the effect of serotonin, read-out: Emax (%), 5-HT2B Agonist Activity.

T2 sequence (P41595 whole entry): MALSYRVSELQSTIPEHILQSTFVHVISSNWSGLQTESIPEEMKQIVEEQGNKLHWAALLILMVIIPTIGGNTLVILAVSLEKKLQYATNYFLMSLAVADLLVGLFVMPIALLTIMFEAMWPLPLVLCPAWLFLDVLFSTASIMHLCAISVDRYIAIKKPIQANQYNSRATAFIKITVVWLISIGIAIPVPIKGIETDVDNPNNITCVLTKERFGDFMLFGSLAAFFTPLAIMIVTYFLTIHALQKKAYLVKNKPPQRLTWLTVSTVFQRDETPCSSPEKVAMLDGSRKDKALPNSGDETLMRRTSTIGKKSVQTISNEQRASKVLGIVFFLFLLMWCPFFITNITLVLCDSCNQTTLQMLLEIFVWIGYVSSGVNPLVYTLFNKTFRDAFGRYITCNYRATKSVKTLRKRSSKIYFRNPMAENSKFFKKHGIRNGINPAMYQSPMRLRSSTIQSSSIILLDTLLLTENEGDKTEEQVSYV

One may read the Ki as a measure of affinity in units of concentration, obtained from inhibition or displacement. Low readings indicate tighter binding, high ones weaker binding. As to `O=C1CC2CNCCN2c2cc(/C=C/c3cccc(F)c3)ccc2N1` (stereo not drawn) [Example 9, 10-[(E)-2-(3-fluorophenyl)vinyl]-1,2,3,4,4a,5-hexahydropyrazino[1,2-a][1,5]benzodiazepin-6(7H)-one], the Ki in assay [1] is 0.0032 µM.

In assay [1], `O=C1CC2CNCCN2c2ccc(-c3ccc(Cl)cc3)cc2N1` (stereo not drawn) [Example 14, 9-(4-chlorophenyl)-1,2,3,4,4a,5-hexahydropyrazino[1,2-a][1,5]-benzodiazepin-6(7H)-one] had a Ki of 0.17 µM.

With `O=C1CC2CNCCN2c2cc(-c3ccccc3Cl)ccc2N1` (stereo not drawn) [Example 8, 10-(2-chlorophenyl)-1,2,3,4,4a,5-hexahydropyrazino[1,2-a][1,5]benzodiazepin-6(7H)-one], the Ki in assay [1] was determined as 0.14 µM. The Ki values of the last two molecules are within 1.5-fold of each other.

For orientation: EC50 means the concentration at which the effect is half-maximal. Broadly, the Emax is the greatest response seen or fitted, relative to the assay's reference. On to `Clc1ccc2c(c1)OCC[C@@H]1CNCCN21` [Example 260, (4aR)-9-chloro-2,3,4,4a,5,6-hexahydro-1H-pyrazino[2,1-d][1,5]benzoxazepine], for which the EC50 in assay [2] was found to be 0.03 µM; in assay [3], 0.0003 µM. Also, the values for the Emax in assay [2] (setting [4]) and in assay [3] (setting [5]) were 90% and 100%, respectively.

Regarding `C1=C(c2ccc3c(c2)N2CCNC[C@@H]2CCO3)CCCC1` [Example 209, (4aS)-10-(cyclohex-1-en-1-yl)-2,3,4,4a,5,6-hexahydro-1H-pyrazino[2,1-d][1,5]benzoxazepine], the EC50 in assay [2] (setting [6]) is over 10 µM; in assay [3] (setting [7]), 0.01 µM. In addition, the Emax in assay [3] (setting [8]) was over 120%.

With `CS(=O)(=O)c1cccc(-c2ccc3c(c2)N2CCNC[C@@H]2CCO3)c1` [Example 196, (4aS)-10-[3-(methylsulfonyl)phenyl]-2,3,4,4a,5,6-hexahydro-1H-pyrazino[2,1-d][1,5]benzoxazepine], the results for the EC50 in assay [2] (setting [6]) and in assay [3] (setting [7]) were over 10 µM and 0.009 µM, respectively. The Emax in assay [3] (setting [8]) is over 120%.

As to `C[C@H](Cc1ccccc1)Oc1ccc2c(c1)N1CCNCC1CC(=O)N2` (stereo partly drawn) [Example 159, 10-{[(2R)-1-phenylpropan-2-yl]oxy}-1,2,3,4,4a,5-hexahydropyrazino[1,2-a][1,5]benzodiazepin-6(7H)-one], the values for the EC50 in assay [2] (setting [6]) and in assay [3] (setting [7]) were over 10 µM and 0.00402 µM, respectively. Moreover, the Emax in assay [3] (setting [8]) was over 120%.

`O=C1CC2CNCCN2c2cc(CCc3ccccc3C(F)(F)F)ccc2N1` (stereo not drawn) [Example 146, 10-{2-[2-(trifluoromethyl)phenyl]ethyl}-1,2,3,4,4a,5-hexahydropyrazino[1,2-a][1,5]benzodiazepin-6(7H)-one]: the EC50 in assay [2] (setting [6]) was over 10 µM; in assay [3] (setting [7]), 0.005 µM. In assay [3] (setting [8]), the Emax is over 120%.

As for `Clc1ccc2c(c1)N1CCN(Cc3ccccc3)C[C@@H]1CCO2` [Example 186, (4aS)-3-benzyl-10-chloro-2,3,4,4a,5,6-hexahydro-1H-pyrazino[2,1-d][1,5]-benzoxazepine], the EC50 in assay [2] (setting [6]) was over 10 µM; in assay [3] (setting [7]), 0.8 µM. For the same molecule, the Emax in assay [3] (setting [8]) is over 120%.

On to `O=C1C[C@H]2CNCCN2c2cccc(Cl)c2N1` [Example 148, (4aS)-8-chloro-1,2,3,4,4a,5-hexahydropyrazino[1,2-a][1,5]benzodiazepin-6(7H)-one], for which the EC50 is over 10 µM in assay [2] and 0.007 µM in assay [3]. Also, the Emax in assay [3] (setting [5]) was over 120%.

`O=C1C[C@H]2CNCCN2c2cc(OC(F)F)ccc2N1` [Example 131, (4aS)-10-(difluoromethoxy)-1,2,3,4,4a,5-hexahydropyrazino[1,2-a][1,5]benzodiazepin-6(7H)-one]: the EC50 turned out to be 0.08 µM in assay [2] (setting [6]) and 0.04 µM in assay [3] (setting [7]). Moreover, the Emax in assay [2] (setting [9]) was found to be 20%; in assay [3] (setting [8]), 110%.

Consider `Fc1cccc2c1N1CCNC[C@@H]1CCO2` [Example 272, (4aS)-11-fluoro-2,3,4,4a,5,6-hexahydro-1H-pyrazino[2,1-d][1,5]benzoxazepine], for which the figures for the EC50 in assay [2] and in assay [3] were 0.05 µM and 0.005 µM, respectively. Besides, the figures for the Emax in assay [2] (setting [4]) and in assay [3] (setting [5]) were 30% and 85%, respectively.

Turning to `CN1CCN2c3cc(Cl)ccc3OCC[C@H]2C1` [Example 188, (4aS)-10-chloro-3-methyl-2,3,4,4a,5,6-hexahydro-1H-pyrazino[2,1-d][1,5]benzoxazepine], the EC50 in assay [2] was over 10 µM; in assay [3], 0.01 µM. Also, the Emax in assay [3] (setting [5]) is 70%.

With `Clc1cc2c(cc1Cl)N1CCNC[C@@H]1CCO2` [Example 214, (4aS)-9,10-dichloro-2,3,4,4a,5,6-hexahydro-1H-pyrazino[2,1-d][1,5]benzoxazepine], the EC50 in assay [2] turned out to be 0.03 µM; in assay [3], 0.002 µM. The Emax in assay [2] (setting [4]) is 60%; in assay [3] (setting [5]), over 120%.

Take `CC(C)Oc1cccc(-c2ccc3c(c2)N2CCNC[C@@H]2CC(=O)N3)c1` [Example 117, (4aS)-10-(3-isopropoxyphenyl)-1,2,3,4,4a,5-hexahydropyrazino[1,2-a][1,5]benzodiazepin-6(7H)-one]: the EC50 in assay [2] (setting [6]) was over 10 µM; in assay [3] (setting [7]) it was 0.001 µM. Also, in assay [3] (setting [8]), the Emax was over 120%.

As for `O=C1CC2CNCCN2c2cc(-c3cccc4ccccc34)ccc2N1` (stereo not drawn) [Example 67, 10-(1-naphthyl)-1,2,3,4,4a,5-hexahydropyrazino[1,2-a][1,5]benzodiazepin-6(7H)-one], the results for the EC50 in assay [2] (setting [6]) and in assay [3] (setting [7]) were over 10 µM and 0.2 µM, respectively. The Emax in assay [3] (setting [8]) is 110%.

As for `CN1CCN2c3cccc(F)c3NC(=O)C[C@H]2C1` [Example 88, (4aS)-8-fluoro-3-methyl-1,2,3,4,4a,5-hexahydropyrazino[1,2-a][1,5]benzodiazepin-6(7H)-one], the EC50 is over 10 µM in assay [2] and 0.03 µM in assay [3]. The Emax in assay [3] (setting [5]) is over 120%.

With `c1cc(-c2ccsc2)c2c(c1)N1CCNC[C@@H]1CCO2` [Example 250, (4aS)-8-(3-thienyl)-2,3,4,4a,5,6-hexahydro-1H-pyrazino[2,1-d][1,5]benzoxazepine], the EC50 is over 10 µM in assay [2] (setting [6]) and 0.0001 µM in assay [3] (setting [7]). Moreover, in assay [3] (setting [8]), the Emax came to 95%.

Consider `O=C1C[C@H]2CNCCN2c2cc(-c3ccccc3F)ccc2N1` [Example 116, (4aS)-10-(2-fluorophenyl)-1,2,3,4,4a,5-hexahydropyrazino[1,2-a][1,5]benzodiazepin-6(7H)-one], for which the EC50 in assay [2] (setting [6]) worked out at 0.05 µM; in assay [3] (setting [7]) it was 0.008 µM. Further, the Emax in assay [2] (setting [9]) is 30%; in assay [3] (setting [8]), over 120%.

Turning to `Cc1cccc2c1N1CCNCC1CC(=O)N2` (stereo not drawn) [Example 53, 11-methyl-1,2,3,4,4a,5-hexahydropyrazino[1,2-a][1,5]benzodiazepin-6(7H)-one], the EC50 was 3 µM in assay [2] and 0.006 µM in assay [3]. In addition, the Emax was 60% in assay [2] (setting [4]) and over 120% in assay [3] (setting [5]).

For `Cc1cccc2c1OCC[C@H]1CN(C)CCN21` [Example 242, (4aS)-3,8-dimethyl-2,3,4,4a,5,6-hexahydro-1H-pyrazino[2,1-d][1,5]benzoxazepine], the EC50 was over 10 µM in assay [2] and 0.002 µM in assay [3]. Moreover, the Emax in assay [3] (setting [5]) was found to be 80%.

Regarding `C[C@H](Cc1ccccc1)Oc1ccc2c(c1)N1CCNC[C@H]1CC(=O)N2` [Example 166, (4aR)-10-{[(2R)-1-phenylpropan-2-yl]oxy}-1,2,3,4,4a,5-hexahydropyrazino[1,2-a][1,5]benzodiazepin-6(7H)-one], the EC50 in assay [2] (setting [6]) was over 10 µM; in assay [3] (setting [7]), 0.04 µM. Also, the Emax in assay [3] (setting [8]) was over 120%.

For the molecule `Cc1ccc2c(c1)OCC[C@@H]1CNCCN21` [Example 259, (4aR)-9-methyl-2,3,4,4a,5,6-hexahydro-1H-pyrazino[2,1-d][1,5]benzoxazepine], the EC50 is 0.1 µM in assay [2] and 0.004 µM in assay [3]. Also, the Emax in assay [2] (setting [4]) was found to be 70%; in assay [3] (setting [5]), 100%.

For the molecule `CCc1ccc2c(c1)N1CCNC[C@@H]1CCO2` [Example 211, (4aS)-10-ethyl-2,3,4,4a,5,6-hexahydro-1H-pyrazino[2,1-d][1,5]benzoxazepine], the EC50 is 0.04 µM in assay [2] and 0.02 µM in assay [3]. The results for the Emax in assay [2] (setting [4]) and in assay [3] (setting [5]) were 45% and 70%, respectively.

Turning to `Fc1ccc2c(c1)N1CCNC[C@H]1CCO2` [Example 258, (4aR)-10-fluoro-2,3,4,4a,5,6-hexahydro-1H-pyrazino[2,1-d][1,5]benzoxazepine], the EC50 amounted to 0.007 µM in assay [2] and 0.01 µM in assay [3]. The Emax in assay [2] (setting [4]) and in assay [3] (setting [5]) was 80% throughout.
